# Test results from PubChem BioAssay AID248 (DTP/NCI, 2004).
# Where “and” joins values, the source holds several entries; their conditions need not be identical. Equal values may be shown once. Inconclusive results and toxic doses are left out.
# Tested on: L1210 leukemia ip in BDF1 mice, survival T/C
# Experiment: NCI In Vivo Anticancer Drug Screen. Data for tumor model L1210 Leukemia (intraperitoneal) in B6D2F1 (BDF1) mice
# Settings: higher = longer survival
# How it was run: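 Each compound was tested against a transplantable tumor grown in mice. The endpoint was survival, with treated animals benchmarked against vehicle controls as a simple ratio.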
# [1] = endpoint: mean survival time, dose: 100.0 mg/kg/injection, schedule: Q01DX001 (ip), vehicle: saline
# [2] = endpoint: mean survival time, dose: 200.0 mg/kg/injection, schedule: Q01DX001 (ip), vehicle: saline
# [3] = endpoint: mean survival time, dose: 400.0 mg/kg/injection, schedule: Q01DX001 (ip), vehicle: saline
smiles,measurement,setting,value
S=C(Nc1ccccc1)Nc1nccs1,T/C,[1],104 % of control
same,T/C,"endpoint: mean survival time, dose: 100.0 mg/kg/injection, schedule: Q04DX003 (ip), vehicle: Klucel (hydroxypropylcellulose) (HPC)",105 % of control
same,T/C,[2],101 % of control
same,T/C,"endpoint: mean survival time, dose: 200.0 mg/kg/injection, schedule: Q04DX003 (ip), vehicle: Klucel (hydroxypropylcellulose) (HPC)",101 % of control
same,T/C,[3],101 % of control
same,T/C,"endpoint: mean survival time, dose: 400.0 mg/kg/injection, schedule: Q04DX003 (ip), vehicle: Klucel (hydroxypropylcellulose) (HPC)",103 % of control
CCOC(=O)c1cnc(SC)nc1Nc1ccc(Cl)c(Cl)c1,T/C,"endpoint: mean survival time, dose: 100.0 mg/kg/injection, schedule: Q01DX001 (ip), vehicle: Klucel (hydroxypropylcellulose) (HPC)",97 % of control
same,T/C,"endpoint: mean survival time, dose: 200.0 mg/kg/injection, schedule: Q01DX001 (ip), vehicle: Klucel (hydroxypropylcellulose) (HPC)",96 % of control
same,T/C,"endpoint: mean survival time, dose: 400.0 mg/kg/injection, schedule: Q01DX001 (ip), vehicle: Klucel (hydroxypropylcellulose) (HPC)",97 % of control
c1cc2n(n1)CCN2,T/C,"endpoint: mean survival time, dose: 26.6 mg/kg/injection, schedule: Q01DX Z (ip), vehicle: methylcellulose (MC)",110 % of control
same,T/C,"endpoint: mean survival time, dose: 40.0 mg/kg/injection, schedule: Q01DX Z (ip), vehicle: methylcellulose (MC)",108 % of control
same,T/C,"endpoint: mean survival time, dose: 50.0 mg/kg/injection, schedule: Q01DX009 (ip), vehicle: water",109 % of control
same,T/C,"endpoint: mean survival time, dose: 60.0 mg/kg/injection, schedule: Q01DX Z (ip), vehicle: methylcellulose (MC)",107 % of control and 112 % of control
same,T/C,"endpoint: mean survival time, dose: 90.0 mg/kg/injection, schedule: Q01DX Z (ip), vehicle: methylcellulose (MC)",104 % of control and 112 % of control
same,T/C,[1],103 % of control
same,T/C,"endpoint: mean survival time, dose: 100.0 mg/kg/injection, schedule: Q01DX001 (sc), vehicle: saline",112 % of control
same,T/C,"endpoint: mean survival time, dose: 100.0 mg/kg/injection, schedule: Q01DX009 (ip), vehicle: saline",112 % of control
same,T/C,"endpoint: mean survival time, dose: 100.0 mg/kg/injection, schedule: Q01DX009 (ip), vehicle: water",107 % of control
same,T/C,"endpoint: mean survival time, dose: 100.0 mg/kg/injection, schedule: Q04DX003 (ip), vehicle: saline",98 % of control and 100 % of control and 104 % of control
same,T/C,"endpoint: mean survival time, dose: 100.0 mg/kg/injection, schedule: Q04DX003 (ip), vehicle: water",114 % of control
same,T/C,"endpoint: mean survival time, dose: 100.0 mg/kg/injection, schedule: Q04DX003 (sc), vehicle: saline",102 % of control and 105 % of control
same,T/C,"endpoint: mean survival time, dose: 100.0 mg/kg/injection, schedule: Q08DX002 (ip), vehicle: saline",105 % of control
same,T/C,"endpoint: mean survival time, dose: 132.0 mg/kg/injection, schedule: Q01DX009 (ip), vehicle: saline",115 % of control
same,T/C,"endpoint: mean survival time, dose: 135.0 mg/kg/injection, schedule: Q01DX Z (ip), vehicle: methylcellulose (MC)",100 % of control
same,T/C,[2],101 % of control
same,T/C,"endpoint: mean survival time, dose: 200.0 mg/kg/injection, schedule: Q01DX001 (oral), vehicle: saline",105 % of control
same,T/C,"endpoint: mean survival time, dose: 200.0 mg/kg/injection, schedule: Q01DX001 (sc), vehicle: saline",112 % of control
same,T/C,"endpoint: mean survival time, dose: 200.0 mg/kg/injection, schedule: Q01DX009 (ip), vehicle: water",121 % of control
same,T/C,"endpoint: mean survival time, dose: 200.0 mg/kg/injection, schedule: Q04DX003 (ip), vehicle: saline",98 % of control and 107 % of control and 124 % of control
same,T/C,"endpoint: mean survival time, dose: 200.0 mg/kg/injection, schedule: Q04DX003 (oral), vehicle: saline",110 % of control and 116 % of control
same,T/C,"endpoint: mean survival time, dose: 200.0 mg/kg/injection, schedule: Q04DX003 (sc), vehicle: saline",108 % of control and 118 % of control
same,T/C,"endpoint: mean survival time, dose: 200.0 mg/kg/injection, schedule: Q08DX002 (ip), vehicle: saline",93 % of control
same,T/C,"endpoint: mean survival time, dose: 264.0 mg/kg/injection, schedule: Q04DX003 (ip), vehicle: saline",110 % of control and 117 % of control
same,T/C,[3],116 % of control
same,T/C,"endpoint: mean survival time, dose: 400.0 mg/kg/injection, schedule: Q01DX001 (oral), vehicle: saline",113 % of control
same,T/C,"endpoint: mean survival time, dose: 400.0 mg/kg/injection, schedule: Q04DX003 (ip), vehicle: water",151 % of control
same,T/C,"endpoint: mean survival time, dose: 400.0 mg/kg/injection, schedule: Q04DX003 (oral), vehicle: saline",124 % of control
same,T/C,"endpoint: mean survival time, dose: 400.0 mg/kg/injection, schedule: Q04DX003 (sc), vehicle: saline",120 % of control
same,T/C,"endpoint: mean survival time, dose: 400.0 mg/kg/injection, schedule: Q08DX002 (ip), vehicle: saline",101 % of control
same,T/C,"endpoint: mean survival time, dose: 600.0 mg/kg/injection, schedule: Q04DX003 (ip), vehicle: saline",177 % of control
same,T/C,"endpoint: mean survival time, dose: 800.0 mg/kg/injection, schedule: Q01DX001 (oral), vehicle: saline",119 % of control
same,T/C,"endpoint: mean survival time, dose: 800.0 mg/kg/injection, schedule: Q04DX003 (ip), vehicle: saline",102 % of control and 104 % of control
same,T/C,"endpoint: mean survival time, dose: 800.0 mg/kg/injection, schedule: Q04DX003 (oral), vehicle: saline",108 % of control and 118 % of control
same,T/C,"endpoint: mean survival time, dose: 800.0 mg/kg/injection, schedule: Q04DX003 (sc), vehicle: saline",100 % of control
same,T/C,"endpoint: mean survival time, dose: 800.0 mg/kg/injection, schedule: Q08DX002 (ip), vehicle: saline",158 % of control
same,T/C,"endpoint: median survival time, dose: 13.0 mg/kg/injection, schedule: Q03HX024 (ip), vehicle: saline",102 % of control
same,T/C,"endpoint: median survival time, dose: 20.0 mg/kg/injection, schedule: Q03HX024 (ip), vehicle: saline",100 % of control
same,T/C,"endpoint: median survival time, dose: 30.0 mg/kg/injection, schedule: Q03HX024 (ip), vehicle: saline",103 % of control
same,T/C,"endpoint: median survival time, dose: 40.0 mg/kg/injection, schedule: Q01DX009 (ip), vehicle: saline",104 % of control
same,T/C,"endpoint: median survival time, dose: 50.0 mg/kg/injection, schedule: Q01DX009 (oral), vehicle: saline",110 % of control
same,T/C,"endpoint: median survival time, dose: 50.0 mg/kg/injection, schedule: Q01DX009 (sc), vehicle: saline",100 % of control
same,T/C,"endpoint: median survival time, dose: 60.0 mg/kg/injection, schedule: Q01DX009 (ip), vehicle: saline",111 % of control
same,T/C,"endpoint: median survival time, dose: 88.0 mg/kg/injection, schedule: Q01DX009 (ip), vehicle: saline",113 % of control
same,T/C,"endpoint: median survival time, dose: 100.0 mg/kg/injection, schedule: Q01DX005 (ip), vehicle: saline",111 % of control
same,T/C,"endpoint: median survival time, dose: 100.0 mg/kg/injection, schedule: Q01DX009 (ip), vehicle: saline",113 % of control
same,T/C,"endpoint: median survival time, dose: 100.0 mg/kg/injection, schedule: Q01DX009 (oral), vehicle: saline",115 % of control
same,T/C,"endpoint: median survival time, dose: 100.0 mg/kg/injection, schedule: Q01DX009 (sc), vehicle: saline",120 % of control
same,T/C,"endpoint: median survival time, dose: 100.0 mg/kg/injection, schedule: Q04DX003 (ip), vehicle: Klucel (hydroxypropylcellulose) (HPC)",105 % of control
same,T/C,"endpoint: median survival time, dose: 100.0 mg/kg/injection, schedule: Q04DX003 (ip), vehicle: saline",116 % of control
same,T/C,"endpoint: median survival time, dose: 100.0 mg/kg/injection, schedule: Q08DX002 (ip), vehicle: saline",100 % of control
same,T/C,"endpoint: median survival time, dose: 108.0 mg/kg/injection, schedule: Q04DX003 (ip), vehicle: saline",100 % of control
same,T/C,"endpoint: median survival time, dose: 133.0 mg/kg/injection, schedule: Q01DX009 (ip), vehicle: saline",121 % of control
same,T/C,"endpoint: median survival time, dose: 133.0 mg/kg/injection, schedule: Q04DX003 (ip), vehicle: saline",119 % of control
same,T/C,"endpoint: median survival time, dose: 133.0 mg/kg/injection, schedule: Q08DX002 (ip), vehicle: saline",119 % of control
same,T/C,"endpoint: median survival time, dose: 180.0 mg/kg/injection, schedule: Q04DX003 (ip), vehicle: saline",100 % of control
same,T/C,"endpoint: median survival time, dose: 200.0 mg/kg/injection, schedule: Q01DX001 (ip), vehicle: saline",103 % of control
same,T/C,"endpoint: median survival time, dose: 200.0 mg/kg/injection, schedule: Q01DX009 (ip), vehicle: saline",106 % of control
same,T/C,"endpoint: median survival time, dose: 200.0 mg/kg/injection, schedule: Q01DX009 (oral), vehicle: saline",86 % of control
same,T/C,"endpoint: median survival time, dose: 200.0 mg/kg/injection, schedule: Q01DX009 (sc), vehicle: saline",150 % of control
same,T/C,"endpoint: median survival time, dose: 200.0 mg/kg/injection, schedule: Q04DX003 (oral), vehicle: saline",119 % of control and 120 % of control
same,T/C,"endpoint: median survival time, dose: 200.0 mg/kg/injection, schedule: Q08DX002 (oral), vehicle: saline",111 % of control and 120 % of control
same,T/C,"endpoint: median survival time, dose: 300.0 mg/kg/injection, schedule: Q01DX001 (ip), vehicle: saline",104 % of control
same,T/C,"endpoint: median survival time, dose: 300.0 mg/kg/injection, schedule: Q04DX003 (ip), vehicle: saline",110 % of control
same,T/C,"endpoint: median survival time, dose: 400.0 mg/kg/injection, schedule: Q04DX003 (ip), vehicle: Klucel (hydroxypropylcellulose) (HPC)",150 % of control
same,T/C,"endpoint: median survival time, dose: 400.0 mg/kg/injection, schedule: Q04DX003 (ip), vehicle: saline",166 % of control
same,T/C,"endpoint: median survival time, dose: 400.0 mg/kg/injection, schedule: Q04DX003 (sc), vehicle: saline",195 % of control
same,T/C,"endpoint: median survival time, dose: 400.0 mg/kg/injection, schedule: Q08DX002 (ip), vehicle: saline",150 % of control
same,T/C,"endpoint: median survival time, dose: 444.0 mg/kg/injection, schedule: Q01DX001 (ip), vehicle: saline",114 % of control
same,T/C,"endpoint: median survival time, dose: 600.0 mg/kg/injection, schedule: Q04DX003 (ip), vehicle: saline",101 % of control
same,T/C,"endpoint: median survival time, dose: 600.0 mg/kg/injection, schedule: Q04DX003 (oral), vehicle: saline",90 % of control
same,T/C,"endpoint: median survival time, dose: 600.0 mg/kg/injection, schedule: Q04DX003 (sc), vehicle: saline",150 % of control
same,T/C,"endpoint: median survival time, dose: 600.0 mg/kg/injection, schedule: Q08DX002 (oral), vehicle: saline",165 % of control
same,T/C,"endpoint: median survival time, dose: 600.0 mg/kg/injection, schedule: Q08DX002 (sc), vehicle: saline",180 % of control
same,T/C,"endpoint: median survival time, dose: 660.0 mg/kg/injection, schedule: Q08DX002 (ip), vehicle: saline",161 % of control
same,T/C,"endpoint: median survival time, dose: 800.0 mg/kg/injection, schedule: Q04DX003 (ip), vehicle: saline",106 % of control and 70 % of control
